Key:
[1] = tested on: JUNB; test: selectivity luciferase assay, Hek 293-CRE-LUC; assay type: cell-based; settings: 0-1 µM, 6 hours
Protocol: The selectivity assays with the active compound FM19G11 were performed in white 96-well plates using the recombinant strains Hek 293-TRE-LUC and Hek 293-CRE-LUC which represent the transcriptional activity of transcription factors of the AP-1 complex. The luciferase assay for measuring transcriptional activity was performed using the kit Bright-Glo™ Luciferase Assay System (Promega, Inc., Madison, WI), following the instructions supplied by the manufacturer and the Hek 293-TRE-LUC and Hek 293-CRE-LUC lines contain the response elements of transcription factors of the AP-1 complex, specifically of c-FOS and JUNB, respectively. The Hek 293-TRE-LUC and Hek 293-CRE-LUC lines were provided by Dr. Rosa Farrás.

[2] = molecular target: T1, acetyltransferase p300 (Mus musculus, UniProt B2RWS6); test: HAT Colorimetric Assay after anti-p300 immunoprecipitation, C17.2 cells; assay type: cell-based; settings: regardless of the percentage of oxygen
T1 construct: endogenous in cells; host or cells: C17.2 mouse neural stem cells
Protocol: Since FM19G11 was capable of affecting the degree of acetylation of histone H3 and therefore the conformation of chromatin, it was evaluated if FM19G11 favored the transfer of acetyl groups to histone H3 or, on the contrary, prevented histone H3 from being deacetylated. Both effects would cause an increase of the degree of acetylation of histone H3. Immunoprecipitation assays were performed with an antibody recognizing acetyltransferase p300 and then assays for measuring the acetyltransferase activity by means of using the kit "HAT Colorimetric Assay" (BioVision) were carried out. This method consists of detecting NADH since peptide acetylation causes the release of the free form of Coenzyme A, which serves as an essential coenzyme for producing NADH.
The protein extracts were previously immunoprecipitated with an anti-p300 antibody and the acetyltransferase activity measured by the detection of NADH. The evaluation of the histone deacetylase (HDAC) activity (Figure 34 B) was carried out with protein extracts of HeLa cells treated with different concentrations of FM19G11. As a positive control, a fixed concentration of TSA (1 µM) was included and extracts of untreated cells were used as a control. The experiments were carried out following the instructions of the Biomol kit for detecting histone deacetylase activity (HDAC Fluorimetric Cellular Activity Assay, Biomol, Cat. No. AK-503). […]

[3] = tested on: HCT116/p53-/- cells; test: cell viability by ATP quantification in colon cancer cells; assay type: cell-based, human; settings: 48 hours, 0.5-1000 µM
Protocol: To determine the effects of FM19G11 on human colon cancer cells (HCT116 and HT29), cell viability assays were carried out in HT29, HCT116/p53^+/+ and HCT116/p53^-/- cells by means of quantifying the ATP which associates with metabolically active cells.

[4] = tested on: HT29; test: anchorage-independent growth in semisolid agar, HT29; assay type: cell-based, human; settings: 0.5 µM, 10 days, versus DMSO, p ≤ 0.005
Protocol: Anchorage-independent cell growth is a study which allows predicting the tumorigenicity of tumor cells in vivo. Anchorage-independent cell growth studies were performed for HT29, HCT116/p53^+/+ and HCT116/p53^-/- cells in semisolid agar which were monitored daily to determine the efficiency of the formation of colonies in the presence of carrier (DMSO) or FM19G11. To that end, the starting material was 75 x 10^3 cells suspended in semisolid agar, which were maintained until 10 days later. […] A reduction of the formation of colonies in the HCT116/p53^-/- cells is not observed. The growth of colonies was quantified in three independent experiments by means of counting colonies in the 4 x magnification optical field of an inverted optical microscope.

[5] = tested on: human dental pulp stem cells; test: Annexin V/PI apoptosis and death in dental pulp stem cells; assay type: cell-based
Protocol: The apoptosis studies were conducted from cell cultures subjected to normoxic and hypoxic conditions in the presence and absence of the compound at 0.5 µM. The presence of phosphatidylserine in the outer part of the plasma membrane, characteristic of apoptotic processes, was detected using Annexin V (fluorescent dye Annexin V-FITC Apoptosis Detection Kit (BD Pharmingen, BD Biosciences) according to the manufacturer's instructions. The cells subjected to the different conditions were incubated with Annexin V for 30 minutes at 4°C. The cells were then incubated with propidium iodide (PI) and analyzed in a FACScalibur flow cytometer ([…]). PI-/AnnexinV+ cells were defined as early apoptotic cells, PI+/AnnexinV+ cells as late apoptotic cells and PI+/AnnexinV- cells as dead cells. Therefore, the number of total apoptotic cells will be the sum of early and late apoptotic cells.

[6] = tested on: C17.2; test: toxicity in C17.2 neural stem cells; assay type: cell-based; settings: Mus musculus
Protocol: C17.2 were cultured in an undifferentiated state using a high-glucose Dulbecco's modified medium (DMEM) supplemented with 10% fetal calf serum, 5% horse serum, 1% glutamine (2 mM), 1% penicillin/streptomycin/fungizone. The cells were seeded at 1500 cells/cm^2, both for normoxic conditions and for hypoxic conditions. The culture of cells in normoxia was carried out in an incubator with 20% O2, 5% CO2, 37°C and the standard percentage of humidity (94%). The conditions of low concentration of O2 were created by using a hypoxia chamber (Invivo2 400, Ruskinn Life Sciences), with the mixture of gases 1% O2, 5% CO2, and 94% N2 at 37°C. The cells were maintained under the normoxic and hypoxic conditions at different times 3, 6, 9, 24, 48 hours. They were subsequently collected and the proteins and the mRNA were extracted using a commercial kit, NucleoSpin RNA/protein (Macherey Nagel) according to the manufacturers' instructions. The concentrations of 19G11 used during the studies conducted are 125, 250 and 500 nM. The concentrations were used according to the results obtained after evaluating the toxicity of C17.2 due to the presence of the compound, since IC50 >1 µM.

T1 sequence (B2RWS6 whole entry): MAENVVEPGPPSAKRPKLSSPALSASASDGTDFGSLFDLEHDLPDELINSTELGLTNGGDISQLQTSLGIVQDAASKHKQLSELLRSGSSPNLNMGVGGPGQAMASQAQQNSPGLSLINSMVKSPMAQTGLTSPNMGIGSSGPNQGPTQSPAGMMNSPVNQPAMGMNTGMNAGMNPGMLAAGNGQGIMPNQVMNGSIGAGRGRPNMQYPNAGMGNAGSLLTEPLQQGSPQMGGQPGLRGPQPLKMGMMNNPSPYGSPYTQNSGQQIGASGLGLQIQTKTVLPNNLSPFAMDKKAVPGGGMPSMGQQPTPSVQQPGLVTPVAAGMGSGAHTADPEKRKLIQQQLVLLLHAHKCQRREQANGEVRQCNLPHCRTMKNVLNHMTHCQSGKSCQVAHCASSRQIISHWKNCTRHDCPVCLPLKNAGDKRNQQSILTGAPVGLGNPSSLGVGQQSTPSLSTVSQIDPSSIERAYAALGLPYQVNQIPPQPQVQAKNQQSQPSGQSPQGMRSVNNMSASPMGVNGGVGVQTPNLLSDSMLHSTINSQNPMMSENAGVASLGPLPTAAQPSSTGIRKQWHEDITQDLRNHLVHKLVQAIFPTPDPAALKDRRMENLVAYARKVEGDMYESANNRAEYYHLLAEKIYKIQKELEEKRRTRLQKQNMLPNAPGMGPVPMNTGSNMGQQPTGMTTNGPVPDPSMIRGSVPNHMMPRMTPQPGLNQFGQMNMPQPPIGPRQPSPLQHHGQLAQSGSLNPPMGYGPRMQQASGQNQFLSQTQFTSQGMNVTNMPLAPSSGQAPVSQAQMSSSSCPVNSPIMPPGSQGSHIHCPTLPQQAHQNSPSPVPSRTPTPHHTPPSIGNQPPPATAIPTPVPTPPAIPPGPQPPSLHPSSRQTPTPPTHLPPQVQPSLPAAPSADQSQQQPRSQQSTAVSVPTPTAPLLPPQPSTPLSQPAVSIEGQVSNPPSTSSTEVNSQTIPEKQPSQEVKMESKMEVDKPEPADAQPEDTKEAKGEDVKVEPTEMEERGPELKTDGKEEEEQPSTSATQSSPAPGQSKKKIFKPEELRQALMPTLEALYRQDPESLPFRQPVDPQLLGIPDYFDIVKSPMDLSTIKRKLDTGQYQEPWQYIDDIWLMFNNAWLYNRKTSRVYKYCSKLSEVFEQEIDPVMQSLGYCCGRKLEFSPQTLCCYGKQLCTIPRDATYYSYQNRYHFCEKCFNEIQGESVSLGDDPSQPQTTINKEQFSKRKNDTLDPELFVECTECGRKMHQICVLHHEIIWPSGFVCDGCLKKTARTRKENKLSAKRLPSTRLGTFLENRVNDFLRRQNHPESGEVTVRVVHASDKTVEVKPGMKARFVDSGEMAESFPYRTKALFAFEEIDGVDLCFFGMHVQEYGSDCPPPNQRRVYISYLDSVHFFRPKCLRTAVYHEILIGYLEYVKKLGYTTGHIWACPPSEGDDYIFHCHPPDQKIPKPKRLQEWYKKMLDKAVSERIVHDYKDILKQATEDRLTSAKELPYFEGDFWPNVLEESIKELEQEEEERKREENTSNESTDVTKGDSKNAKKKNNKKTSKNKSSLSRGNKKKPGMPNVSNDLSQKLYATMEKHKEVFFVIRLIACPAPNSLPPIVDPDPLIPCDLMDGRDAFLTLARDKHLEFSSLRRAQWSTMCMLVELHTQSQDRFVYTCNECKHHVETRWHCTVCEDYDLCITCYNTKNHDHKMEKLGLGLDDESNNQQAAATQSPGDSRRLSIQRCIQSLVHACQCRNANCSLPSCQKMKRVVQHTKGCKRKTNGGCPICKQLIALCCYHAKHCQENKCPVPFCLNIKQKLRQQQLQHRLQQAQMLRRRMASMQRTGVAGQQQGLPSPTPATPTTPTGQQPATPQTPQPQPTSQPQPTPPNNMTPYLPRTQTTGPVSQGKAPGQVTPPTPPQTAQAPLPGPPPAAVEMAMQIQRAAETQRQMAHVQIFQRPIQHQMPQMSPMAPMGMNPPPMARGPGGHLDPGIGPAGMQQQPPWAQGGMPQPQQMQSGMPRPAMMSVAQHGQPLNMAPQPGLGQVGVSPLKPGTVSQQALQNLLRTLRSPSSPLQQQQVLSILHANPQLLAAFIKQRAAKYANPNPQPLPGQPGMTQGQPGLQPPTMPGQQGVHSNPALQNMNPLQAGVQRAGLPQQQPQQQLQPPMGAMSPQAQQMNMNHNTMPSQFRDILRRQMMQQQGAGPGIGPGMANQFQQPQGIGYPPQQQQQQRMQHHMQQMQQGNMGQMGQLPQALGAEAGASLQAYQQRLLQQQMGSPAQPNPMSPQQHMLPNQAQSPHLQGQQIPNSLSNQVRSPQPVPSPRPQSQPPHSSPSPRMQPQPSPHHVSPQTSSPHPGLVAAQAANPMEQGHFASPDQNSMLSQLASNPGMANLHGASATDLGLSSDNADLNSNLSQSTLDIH

Cc1ccc(C(=O)COC(=O)c2cccc(NC(=O)c3ccc([N+](=O)[O-])cc3[N+](=O)[O-])c2)cc1 [FM19G11, 2-oxo-2-(p-tolyl)ethyl 3-((2,4-dinitro)benzamido)benzoate]
transcriptional levels of Hek 293-CRE-LUC [1]: not affected in any case
acetyltransferase activity of the immunoprecipitated fraction [2]: increase of the acetyltransferase activity
sensitivity (cell viability, ATP) compared to HCT116/p53+/+ or HT29 [3]: less sensitive
growth of colonies in semisolid agar [4]: significant decrease
death (decreased in hypoxia) ([5]; 0.5 µM): reverts the decrease in death
number of total apoptotic cells (reduced by hypoxia) ([5]; 0.5 µM, 72 hours): capable of reverting said effect
expression of the tumor suppressor p53 ([5]; hypoxia): recovery of p53
IC50 [6]: > 1000 nM

From EP2292587A1, “PHARMACEUTICAL COMPOSITION FOR INHIBITING THE TRANSCRIPTION FACTOR INDUCIBLE BY HYPOXIA, MODULATORS OF PATHOLOGICAL PROCESSES OF ANGIOGENESIS, ONCOGENESIS, INFLAMMATION, APOPTOSIS, AND CELLULAR THERAPY” (Fundacion De La Comunidad Valenciana Centro De …, priority 2008, dated 2009)
